Test results taken from patent publication EP0281245B1, “Cytochrome P-450 enzymes” (Sankyo Company Limited, priority 1987, dated 1988).
Where a name gives a salt, the structure may show the parent alone. Read-outs that look alike come from different tables or passages of the source. Blank lines part the entries; values can stand above or below the compound they belong to.

Experiments:
Test in all cases: Effect of potential inhibitors and metallic ions on rate of formation of pravastatin sodium from sodium ML-236B carboxylate (method ii)
cytochrome P-450sca-1 = type: biochemical, Streptomyces carbophilus; conditions: for Residual activity of enzyme P-450sca-1: 5 min; for inhibition of cytochrome (in words): each cytochrome
Method: (§1) The following cocktail of components is employed:
(§2) The components of the Table are mixed, the solution is shaken at 30°C for 5 minutes, and then 10 »l of 6 N NaOH is added and the reaction stopped. The amount of pravastatin sodium formed by the enzyme system is determined with HPLC.
(§3) The effects of potential inhibitors against cytochrome P-450sca-1 P-450sca-2, P-450sca-3 and the effects of metallic ions on the action of the cytochrome P-450 can be assessed quantitatively using the method (ii).

P-450sca-2 = target: T1, P-450sca-2 (Streptomyces carbophilus, UniProt Q59831); type: biochemical; conditions: for remaining activity at 2000 µM: read-out: Residual activity of enzyme P-450sca-2
T1 construct: made in house; host or cells: Streptomyces carbophilus SANK 62585 (FERM BP-1145), native producer, not recombinant
T1 sequence (Q59831 1-410): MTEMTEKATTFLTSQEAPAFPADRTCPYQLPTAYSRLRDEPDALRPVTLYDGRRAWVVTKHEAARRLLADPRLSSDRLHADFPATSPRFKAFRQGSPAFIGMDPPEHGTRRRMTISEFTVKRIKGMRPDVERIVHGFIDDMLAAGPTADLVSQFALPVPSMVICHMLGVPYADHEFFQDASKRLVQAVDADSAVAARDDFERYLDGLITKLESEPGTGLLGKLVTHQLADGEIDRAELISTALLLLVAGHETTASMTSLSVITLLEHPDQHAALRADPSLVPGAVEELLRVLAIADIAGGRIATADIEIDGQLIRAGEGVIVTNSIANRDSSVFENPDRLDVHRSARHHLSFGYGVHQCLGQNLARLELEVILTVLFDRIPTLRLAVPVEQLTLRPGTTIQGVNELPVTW
Method: (§4) (ii) Measurement of rate of formation of pravastatin sodium from sodium ML-236B carboxylate
as §1, §2, §3

P-450sca-3 = type: biochemical, Streptomyces carbophilus
Method: as §4, §1, §2, §3

SMILES: [C-]#[O+] [CO, carbon monoxide]
Residual activity of enzyme P-450sca-1 (cytochrome P-450sca-1; CO bubbled in for 1 minute): 50.0%
inhibition of cytochrome (in words) (cytochrome P-450sca-1): inhibited
Residual activity of enzyme P-450sca-2 (P-450sca-2; CO bubbled in for 1 minute): 55.0%
inhibition of cytochrome (in words) (P-450sca-2; each cytochrome): inhibited
Residual activity of enzyme P-450sca-3 (P-450sca-3; CO bubbled in for 1 minute): 60.4%
inhibition of cytochrome (in words) (P-450sca-3; each cytochrome): inhibited

SMILES: [Ca+2].[Cl-].[Cl-] [CaCl₂]
Residual activity of enzyme P-450sca-1 (cytochrome P-450sca-1; 1 mM added compound): 100.0%
Residual activity of enzyme P-450sca-2 (P-450sca-2; 1 mM added compound): 100.0%
Residual activity of enzyme P-450sca-3 (P-450sca-3; 1 mM added compound): 100.0%

SMILES: CN/C(=N/CCSCc1nc[nH]c1C)NC#N [Cimetidine]
Residual activity of enzyme P-450sca-1 (cytochrome P-450sca-1; 2 mM added compound): 58.7%
inhibition of cytochrome (in words) (cytochrome P-450sca-1): inhibited
inhibition of cytochrome (in words) (P-450sca-2): inhibited
remaining activity at 2000 µM (P-450sca-2): 45.7%
inhibition of cytochrome (in words) (P-450sca-3): inhibited
Residual activity of enzyme P-450sca-3 (P-450sca-3; 2000 µM): 43.8%

SMILES: [Cl-].[Cl-].[Co+2] [CoCl₂]
Residual activity of enzyme P-450sca-1 (cytochrome P-450sca-1; 1 mM added compound): 65.0%
inhibition of cytochrome (in words) (cytochrome P-450sca-1): inhibited
Residual activity of enzyme P-450sca-2 (P-450sca-2; 1 mM added compound): 67.5%
inhibition of cytochrome (in words) (P-450sca-2; each cytochrome): inhibited
Residual activity of enzyme P-450sca-3 (P-450sca-3; 1 mM added compound): 60.1%
inhibition of cytochrome (in words) (P-450sca-3; each cytochrome): inhibited

SMILES: [Cl][Cu][Cl] [CuCl₂]
Residual activity of enzyme P-450sca-1 (cytochrome P-450sca-1; 1 mM added compound): 0%
inhibition of cytochrome (in words) (cytochrome P-450sca-1): inhibited
Residual activity of enzyme P-450sca-2 (P-450sca-2; 1 mM added compound): 0%
inhibition of cytochrome (in words) (P-450sca-2; each cytochrome): inhibited
Residual activity of enzyme P-450sca-3 (P-450sca-3; 1 mM added compound): 0%
inhibition of cytochrome (in words) (P-450sca-3; each cytochrome): inhibited

SMILES: [Cl][Mn][Cl] [MnCl₂]
Residual activity of enzyme P-450sca-1 (cytochrome P-450sca-1; 1 mM added compound): 20.0%
inhibition of cytochrome (in words) (cytochrome P-450sca-1): inhibited
Residual activity of enzyme P-450sca-2 (P-450sca-2; 1 mM added compound): 18.7%
inhibition of cytochrome (in words) (P-450sca-2; each cytochrome): inhibited
Residual activity of enzyme P-450sca-3 (P-450sca-3; 1 mM added compound): 17.5%
inhibition of cytochrome (in words) (P-450sca-3; each cytochrome): inhibited

Residual activity of enzyme P-450sca-1 (cytochrome P-450sca-1; 2 mM added compound): 25.8%
inhibition of cytochrome (in words) (cytochrome P-450sca-1): inhibited
remaining activity at 2000 µM (P-450sca-2; 2 mM added compound): 22.8%
inhibition of cytochrome (in words) (P-450sca-2; each cytochrome): inhibited
Residual activity of enzyme P-450sca-3 (P-450sca-3; 2 mM added compound): 24.1%
SMILES: CCCC(C(=O)OCCN(CC)CC)(c1ccccc1)c1ccccc1 [SKF-525A, 2-diethylaminoethyl-2,2-diphenyl valerate hydrochloride]
inhibition of cytochrome (in words) (P-450sca-3; each cytochrome): inhibited
